What was measured:
human receptor OR2L13 = biological target: T1, human receptor OR2L13 (Homo sapiens, UniProt Q8N349); assay: cell-based dose-response, Ca2+ increase (Calcium 5 dye, FLIPR), HEK293T line stably expressing FLAG-Rho tagged receptor with human Gα15; conditions: FIG. 3, Example 3, SEQ ID NO: 26, stable HEK293T
T1 construct: The receptors were tagged with a FLAG®-Rho tag combination; expressed in transfected cells
T1 sequence (Q8N349 1-312): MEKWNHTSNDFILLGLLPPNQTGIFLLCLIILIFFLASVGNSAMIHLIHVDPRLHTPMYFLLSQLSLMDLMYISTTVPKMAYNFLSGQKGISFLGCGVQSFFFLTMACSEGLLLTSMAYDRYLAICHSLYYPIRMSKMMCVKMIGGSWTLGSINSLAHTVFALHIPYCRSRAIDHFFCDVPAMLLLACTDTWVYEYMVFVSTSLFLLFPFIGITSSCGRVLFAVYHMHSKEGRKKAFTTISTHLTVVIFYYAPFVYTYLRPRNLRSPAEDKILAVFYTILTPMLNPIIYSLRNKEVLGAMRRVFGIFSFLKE
Protocol: (§1) Functional dose-response experiments were performed to evaluate the level of DMTS activity of the modified cell lines expressing individual putative DMTS receptors. A cell line stably expressing a human receptor was generated in a HEK293T cell line for each of the following human receptors: OR2L13, OR4C15, OR5AC2, OR8H3, OR11G2 or OR52N2. The receptors were tagged with a FLAG®-Rho tag combination and stably co-expressed with the human G-protein alpha subunit Gals for the cell based assay. Co-expression of the human Gals activates the Gq transduction pathway that leads to an internal Ca^2+ increase upon binding to the appropriate ligand. Receptors were exposed to increasing concentrations of DMTS. Odorant-induced activity was detected by measuring the Ca^2+ increase in the cytosol using a calcium sensitive fluorescent dye (Molecular Devices, Calcium 5 dye, cat. R8186) and measuring the change in Relative Fluorescence Ratio (RFU) using a fluorometric imaging plate reader (Molecular Devices, FLIPR) following odorant exposure. […] A cell line lacking a receptor was used as a control for non-specific activity at high compound concentrations (‘No receptor’). The activity levels are reported by the potency of the DMTS induced-response for each receptor as a measure of the EC50 value.

human receptor OR11G2 = biological target: T2, human receptor OR11G2 (Homo sapiens, UniProt Q8NGC1); assay: as above; conditions: FIG. 3, Example 3, SEQ ID NO: 36, stable HEK293T
T2 construct: The receptors were tagged with a FLAG®-Rho tag combination; expressed in transfected cells
T2 sequence (Q8NGC1 35-345 limits assumed): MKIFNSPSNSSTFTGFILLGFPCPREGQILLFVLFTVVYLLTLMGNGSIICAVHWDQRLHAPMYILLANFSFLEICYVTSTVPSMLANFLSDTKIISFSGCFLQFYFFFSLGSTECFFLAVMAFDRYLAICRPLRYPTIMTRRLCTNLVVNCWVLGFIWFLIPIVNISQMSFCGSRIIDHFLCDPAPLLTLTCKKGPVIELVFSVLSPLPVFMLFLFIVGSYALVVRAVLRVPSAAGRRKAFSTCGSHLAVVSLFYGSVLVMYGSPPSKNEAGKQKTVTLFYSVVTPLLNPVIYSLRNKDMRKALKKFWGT
Protocol: as §1

mouse receptor Olfr169 = biological target: T3, mouse receptor Olfr169 (Mus musculus, UniProt Q7TS53); assay: cell-based dose-response, cAMP increase by HTRF, HEK293T cells (endogenous RTP1 activated) co-transfected with human Golf, Lucy-FLAG-Rho tagged receptor
T3 construct: cAMP HTRF
T3 sequence (Q7TS53 1-313): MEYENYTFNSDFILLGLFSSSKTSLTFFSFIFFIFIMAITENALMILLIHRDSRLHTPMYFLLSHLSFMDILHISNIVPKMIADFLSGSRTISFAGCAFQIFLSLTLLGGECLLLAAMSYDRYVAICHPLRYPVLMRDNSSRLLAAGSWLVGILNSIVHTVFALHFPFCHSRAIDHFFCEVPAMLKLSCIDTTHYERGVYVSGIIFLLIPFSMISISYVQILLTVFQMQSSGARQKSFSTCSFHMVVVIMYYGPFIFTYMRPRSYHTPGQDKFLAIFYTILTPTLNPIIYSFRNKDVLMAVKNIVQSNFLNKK
Protocol: (§2) Functional dose-response experiments were performed to evaluate the level of DMTS activity of the modified cell line expressing individual putative DMTS receptors. Using a cell-based assay, mouse receptor Olfr1193, Olfr1093, Olfr1097, Olrf166, Olfr169, Olfr738 and Olfr742, and human receptor OR4S2 and OR52N5 were tested in an HEK293T cell line wherein the endogenous RTP1 gene has been activated and the odorant receptor chaperone protein was expressed (described in WO2016/201153). The mouse receptor genes were tagged with a Lucy-FLAG®-Rho tag combination and the human receptors were tagged with a Rho-FLAG® tag combination resulting in a tag:receptor fusion protein for the cell based assay. Receptor genes were co-transfected with the canonical olfactory human G-protein alpha subunit Golf gene and were exposed to increasing concentrations of the malodor odorant. Co-expression of the human Golf activates the Gs transduction pathway that leads to an internal cAMP increase upon binding to the appropriate ligand. Odorant-induced activity was detected by measuring the cAMP increase in the cytosol using an Homogeneous Time Resolved Fluorescence (HTRF) based kit (CisBio, cAMP dynamic 2 kit, cat. 62AM4PEJ). […] The activity levels are reported by the potency of the DMTS induced-response for each receptor as a measure of the EC50 value (the effective concentration at which the receptor responds at its half-maximal activation efficacy level for a given compound).
(§3) Functional dose-response experiments were performed to confirm the DMTS activity on the DMTS receptors identified in Example 2 and to further characterize their response to DMDS. Using the same cell-based assay described in Example 2, mouse receptors Olfr1193, Olfr1093, Olfr1097, Olfr166, Olfr169, Olfr738, Olfr742 and of human odorant receptor OR4S2 were tested with increasing concentration of DMTS, DMDS or butyric acid (control). […] A weak response for OR4S2 and Olfr169 to butyric acid was visible but was too weak to consider butyric acid as a representative ligand for these receptors. The activity levels are reported by the potency of DMTS or DMDS induced-response for each receptor as a measure of the EC50 value, EC50DMTS and EC50DMDS respectively. […] Competitive antagonists at the malodor binding site of these receptors have the potential to reduce the unpleasant perception of both DMTS and DMDS.

mouse receptor Olfr1093 = biological target: T4, mouse receptor Olfr1093 (Mus musculus, UniProt B2RR12); assay: as above
T4 construct: cAMP HTRF
T4 sequence (B2RR12 1-322): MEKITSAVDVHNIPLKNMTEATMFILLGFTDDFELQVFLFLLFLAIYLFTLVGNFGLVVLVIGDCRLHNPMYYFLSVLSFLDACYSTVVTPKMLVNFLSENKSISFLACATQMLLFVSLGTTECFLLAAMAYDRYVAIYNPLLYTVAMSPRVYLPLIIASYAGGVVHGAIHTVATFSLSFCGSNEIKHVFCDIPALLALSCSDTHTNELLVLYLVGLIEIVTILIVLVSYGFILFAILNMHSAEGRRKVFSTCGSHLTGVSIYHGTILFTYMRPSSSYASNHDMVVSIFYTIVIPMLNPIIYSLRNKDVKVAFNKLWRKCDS
Protocol: as §2, §3

CSSSC [DMTS, dimethyl trisulfide]
EC50 (human receptor OR2L13): 59 µM
EC50 (human receptor OR11G2): 12 µM
EC50 (mouse receptor Olfr169; FIG. 2, Example 2, SEQ ID NO: 10): 32 µM
EC50 (mouse receptor Olfr169; FIG. 5, Example 5, SEQ ID NO: 10): 23 µM
EC50 (mouse receptor Olfr1093; FIG. 2, Example 2, SEQ ID NO: 4): 46 µM
EC50 (mouse receptor Olfr1093; FIG. 5, Example 5, SEQ ID NO: 4): 62 µM

Reference: patent publication US11787847B2, “Method of identifying malodor modulating compounds” (FIRMENICH SA, priority 2017, dated 2023)
